Molecular target: T1, glucocorticoid receptor (GR) (Homo sapiens, UniProt P04150)
T1 sequence (P04150 521-777): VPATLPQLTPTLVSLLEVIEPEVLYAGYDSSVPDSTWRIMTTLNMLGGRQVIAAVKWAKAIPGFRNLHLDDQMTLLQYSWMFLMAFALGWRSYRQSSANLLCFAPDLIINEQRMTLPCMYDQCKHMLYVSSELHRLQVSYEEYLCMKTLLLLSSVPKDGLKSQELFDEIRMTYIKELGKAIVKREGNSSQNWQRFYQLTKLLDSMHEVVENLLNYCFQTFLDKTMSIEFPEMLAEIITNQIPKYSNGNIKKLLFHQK
Assay: Assay for agonist activity on glucocorticoid receptor (luciferase reporter, HEK293 cells transfected with pBIND-GR plasmid)
Format: cell-based
Settings: HEK293 cells transfected with pBIND-GR, luciferase signal; read-out: GR agonist EC50
Protocol: Pharmacological Example 1: Assay for Agonist Activity on Glucocorticoid Receptor (GR)
The test compounds were subjected to a 4-fold serial dilution starting from an initial concentration of 10 µ M, generating a 10-point concentration gradient with duplicate wells for each concentration. The blank control consisted of 0.1 % DMSO.
The HEK293 stable cell line […] transfected with glucocorticoid receptor (GR) (ICE Bioscience, Lot No. TYP-20220519) was cultured in Dulbecco's Modified Eagle Medium (DMEM) supplemented with 10% fetal bovine serum (FBS) and 200 µ g/ml Hygromycin B in a cell incubator containing 5% CO2 at 37 °C. The spent medium was aspirated and the cells were washed once with phosphate-buffered saline (PBS). Then, 1 mL of TrypLE™ Express solution was added, and the cells were incubated at 37 °C for approximately 2 min. When the cells detached from the bottom of the cell culture dish, approximately 5 mL of pre-warmed complete medium at 37 °C was added. The cell suspension was gently pipetted with a pipette to dissociate clumped cells. The cell suspension was transferred to a sterile centrifuge tube and centrifuged at 1000 rpm for 5 min to pellet the cells for experiments or subculture.
HEK293 cells were digested and seeded into 6-cm culture dishes. The pBIND-GR plasmid was transfected into the HEK293 cells using a transfection reagent, resulting in HEK293 cells successfully transfected with the pBIND-GR plasmid. The cells were resuspended in phenol red-free DMEM medium containing 5% charcoal-stripped serum, counted, and then seeded into 96-well plates. The test compounds were added, and the plates were then incubated in an incubator. The luminescence signal values were measured using a multimode microplate reader following the instructions of the luciferase assay kit. The EC50 values of each test compound were calculated using the nonlinear fitting formula with GraphPad Prism 8.0 software.

Row | SMILES | EC50 [nM]
1 | C[C@]12C=CC(=O)C=C1CC[C@@H]1[C@@H]2[C@@H](O)C[C@@]2(C)[C@H]1C[C@H]1OC(c3ccc(CSC4COC(=O)C4)cc3C#N)O[C@]12C(=O)CO (stereo partly drawn) [Compound 32, 2-((6aR,6bS,7S,8aS,8bS,11aR,12aS,12bS)-7-Hydroxy-8b-(2-hydroxyacetyl)-6a,8a-dimethyl-4-oxo-2,4,6a,6b,7,8,8a,8b,11a,12,12a,12b-dodecahydro-1H-naphtho[2',1':4,5]indeno[1,2-d][1,3]dioxol-10-yl)-5-(((5-oxotetrahydrofuran-3-yl)thio)methyl)benzonitrile] | 3.67
2 | C[C@]12C=CC(=O)C=C1CC[C@@H]1[C@@H]2[C@@H](O)C[C@@]2(C)[C@H]1C[C@H]1OC(c3ccc(CNC4COC(=O)C4)cc3)O[C@]12C(=O)CO (stereo partly drawn) [Compound 33, (6aR,6bS, 7S,8aS,8bS,11aR,12aS,12bS)-7-Hydroxy-8b-(2-hydroxyacetyl)-6a,8a-dimethyl-10-(4-(( (5-oxotetrahydrofuran-3-yl)amino)methyl)phenyl)-1,2,6a,6b,7,8,8a,8b,11a,12,12a,12b-dodecahydr o-4H-naphtho[2',1':4,5]indeno[1,2-d][1,3]dioxol-4-one] | 4.38
3 | C[C@]12C=CC(=O)C=C1CC[C@H]1[C@@H]3C[C@H]4OC(c5ccc(CSC6COC(=O)C6)cc5)O[C@@]4(C(=O)CCl)[C@@]3(C)C[C@H](O)[C@@]12Cl (stereo partly drawn) [Compound 39, (6aS,6bR,7S,8aS,8bS,11aR,12aS,12bS)-6b-Chloro-8b-(2-chloroacetyl)-7-hydroxy-6a,8a-dimethyl-10-(4-(((5-oxotetrahydrofuran-3-yl)thio)methyl)phenyl)-l,2,6a,6b,7,8,8a,8b,11a,12,12a,12b-dode cahydro-4H-naphtho[2',1':4,5]indeno[1,2-d][1,3]dioxol-4-one] | 3.31
4 | C[C@]12C=CC(=O)C=C1CC[C@H]1[C@@H]3C[C@H]4OC(c5ccc(OC6CCOC6=O)cc5)O[C@@]4(C(=O)CO)[C@@]3(C)C[C@H](O)[C@@]12F (stereo partly drawn) [Compound 40, (6aS,6bR,7S,8aS,8bS,11aR,12aS,12bS)-6b-Fluoro-7-hydroxy-8b-(2-hydroxyacetyl)-6a,8a-dimethyl-10-(4-((2-oxotetrahydrofuran-3-yl)oxy)phenyl)-1,2,6a,6b,7,8,8a,8b,11a,12,12a,12b-dodecahydr o-4H-naphtho[2',1':4,5]indeno[1,2-d][1,3]dioxol-4-one] | 30.7
5 | C[C@]12C=CC(=O)C=C1CC[C@H]1[C@@H]3C[C@H]4OC(c5ccc(NC6CCOC6=O)cc5)O[C@@]4(C(=O)CO)[C@@]3(C)C[C@H](O)[C@@]12F (stereo partly drawn) [Compound 42, (6aS,6bR,7S,8aS,8bS,11aR,12aS,12bS)-6b-Fluoro-7-hydroxy-8b-(2-hydroxyacetyl)-6a,8a-dimethyl-10-(4-((2-oxotetrahydrofuran-3-yl)amino)phenyl)-1,2,6a,6b,7,8,8a,8b,11a,12,12a,12b-dodecahy dro-4H-naphtho[2',1':4,5]indeno[1,2-d][1,3]dioxol-4-one] | 19.5
6 | C[C@]12C=CC(=O)C=C1CC[C@H]1[C@@H]3C[C@H]4OC(c5ccc(CC6CCOC6=O)cc5)O[C@@]4(C(=O)CO)[C@@]3(C)C[C@H](O)[C@@]12F (stereo partly drawn) [Compound 43, (6aS,6bR,7S,8aS,8bS,11aR,12aS,12bS)-6b-Fluoro-7-hydroxy-8b-(2-hydroxyacetyl)-6a,8a-dimethyl-10-(4-((2-oxotetrahydrofuran-3-yl)methyl)phenyl)-1,2,6a,6b,7,8,8a,8b,11a,12,12a,12b-dodecah ydro-4H-naphtho[2',1':4,5]indeno[1,2-d][1,3]dioxol-4-one] | 7.71
7 | C[C@]12C=CC(=O)C=C1CC[C@H]1[C@@H]3C[C@H]4OC(C5CCN(CC6CCOC6=O)CC5)O[C@@]4(C(=O)CO)[C@@]3(C)C[C@H](O)[C@@]12F (stereo partly drawn) [Compound 44, (6aS,6bR,7S,8aS,8bS,11aR,12aS,12bS)-6b-Fluoro-7-hydroxy-8b-(2-hydroxyacetyl)-6a,8a-dimethyl-10-(1-((2-oxotetrahydrofuran-3-yl)methyl)piperidin-4-yl)-1,2,6a,6b,7,8,8a,8b,11a,12,12a,12b-d odecahydro-4H-naphtho[2',1':4,5]indeno[1,2-d][1,3]dioxol-4-one] | 15.1
8 | C[C@]12C=CC(=O)C=C1[C@@H](F)C[C@H]1[C@@H]3C[C@H]4OC(c5ccc(CSC6CCOC6=O)cn5)O[C@@]4(C(=O)CO)[C@@]3(C)C[C@H](O)[C@@]12F (stereo partly drawn) [Compound 49, (2S,6aS,6bR,7S,8aS,8bS,11aR,12aS,12bS)-2,6b-Difluoro-7-hydroxy-8b-(2-hydroxyacetyl)-6a,8a-dimethyl-10-(5-(((2-oxotetrahydrofuran-3-yl)thio)methyl)pyridin-2-yl)-1,2,6a,6b,7,8,8a,8b,11a,12, 12a,12b-dodecahydro-4H-naphtho[2',1':4,5]indeno[1,2-d][1,3]dioxol-4-one] | 1.12
9 | C[C@]12C=CC(=O)C=C1CC[C@H]1[C@@H]3C[C@H]4OC(c5ccc(CSC6CCOC6=O)cn5)O[C@@]4(C(=O)CO)[C@@]3(C)C[C@H](O)[C@@]12F (stereo partly drawn) [Compound 50, (6aS,6bR,7S,8aS,8bS,11aR,12aS,12bS)-6b-Fluoro-7-hydroxy-8b-(2-hydroxyacetyl)-6a,8a-dimethyl-10-(5-(((2-oxotetrahydrofuran-3-yl)thio)methyl)pyridin-2-yl)-1,2,6a,6b,7,8,8a,8b,11a,12,12a,12 b-dodecahydro-4H-naphtho[2',1':4,5]indeno[1,2-d][1,3]dioxol-4-one] | 0.98
10 | C[C@]12C=CC(=O)C=C1[C@@H](F)C[C@H]1[C@@H]3C[C@H]4OC(c5cnc(CSC6CCOC6=O)nc5)O[C@@]4(C(=O)CO)[C@@]3(C)C[C@H](O)[C@@]12F (stereo partly drawn) [Compound 52, (2S,6aS,6bR,7S,8aS,8bS,11aR,12aS,12bS)-2,6b-Difluoro-7-hydroxy-8b-(2-hydroxyacetyl)-6a,8a-dimethyl-10-(2-(((2-oxotetrahydrofuran-3-yl)thio)methyl)pyrimidin-5-yl)-1,2,6a,6b,7,8,8a,8b,11a, 12,12a,12b-dodecahydro-4H-naphtho[2',1':4,5]indeno[1,2-d][1,3]dioxol-4-one] | 6.92
11 | C[C@]12C=CC(=O)C=C1CC[C@H]1[C@@H]3C[C@H]4OC(c5cnc(CSC6CCOC6=O)nc5)O[C@@]4(C(=O)CO)[C@@]3(C)C[C@H](O)[C@@]12Cl (stereo partly drawn) [Compound 54, (6aS,6bR,7S,8aS,8bS,11aR,12aS,12bS)-6b-Chloro-7-hydroxy-8b-(2-hydroxyacetyl)-6a,8a-dimethyl-10-(2-(((2-oxotetrahydrofuran-3-yl)thio)methyl)pyrimidin-5-yl)-1,2,6a,6b,7,8,8a,8b,11a,12,12a, 12b-dodecahydro-4H-naphtho[2',1':4,5]indeno[1,2-d][1,3]dioxol-4-one] | 5.64
12 | C[C@]12C=CC(=O)C=C1CC[C@H]1[C@@H]3C[C@H]4OC(c5ccc(C[S+]([O-])C6CCOC6=O)cc5)O[C@@]4(C(=O)CO)[C@@]3(C)C[C@H](O)[C@@]12F (stereo partly drawn) [Compound 56, (6aS,6bR,7S,8aS,8bS,11aR,12aS,12bS)-6b-Fluoro-7-hydroxy-8b-(2-hydroxyacetyl)-6a,8a-dimethyl-10-(4-(((2-oxotetrahydrofuran-3-yl)sulfinyl)methyl)phenyl)-1,2,6a,6b,7,8,8a,8b,11a,12,12a,12b-dodecahydro-4H-naphtho[2',1':4,5]indeno[1,2-d][1,3]dioxol-4-one] | 1.56

— EP4635969A1, “NOVEL GLUCOCORTICOID, METHOD FOR PREPARING SAME, AND USE THEREOF” (Tianjin Pharmaceutical Biotechnology Co., Ltd., priority 2022, dated 2024)
